Biological target: GCN2 (Homo sapiens (Human), UniProt Q9P2K8)
Test: GCN2 Biochemical Assay (TR-FRET, GFP-eIF2S1 substrate phosphorylation)
Settings: read-out: IC50 (GCN2 Inhibitory Activity)
Method in brief: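 TR-FRET readout (Ex 340, Em 490/520 nm) after 2–3 h with Tb-labelled phospho-eIF2S1 antibody in stop mix, following a 70 min room-temperature kinase step. Reaction: in-house GCN2, GFP-eIF2S1, ATP, tRNA in Tris pH 7.5 (2× stocks 1.6 nM, 50 nM, 0.2 mM); compounds tested at 10 concentrations, with a phospho-substrate artifact counter-plate.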

Sequence of GCN2 (Q9P2K8 whole entry): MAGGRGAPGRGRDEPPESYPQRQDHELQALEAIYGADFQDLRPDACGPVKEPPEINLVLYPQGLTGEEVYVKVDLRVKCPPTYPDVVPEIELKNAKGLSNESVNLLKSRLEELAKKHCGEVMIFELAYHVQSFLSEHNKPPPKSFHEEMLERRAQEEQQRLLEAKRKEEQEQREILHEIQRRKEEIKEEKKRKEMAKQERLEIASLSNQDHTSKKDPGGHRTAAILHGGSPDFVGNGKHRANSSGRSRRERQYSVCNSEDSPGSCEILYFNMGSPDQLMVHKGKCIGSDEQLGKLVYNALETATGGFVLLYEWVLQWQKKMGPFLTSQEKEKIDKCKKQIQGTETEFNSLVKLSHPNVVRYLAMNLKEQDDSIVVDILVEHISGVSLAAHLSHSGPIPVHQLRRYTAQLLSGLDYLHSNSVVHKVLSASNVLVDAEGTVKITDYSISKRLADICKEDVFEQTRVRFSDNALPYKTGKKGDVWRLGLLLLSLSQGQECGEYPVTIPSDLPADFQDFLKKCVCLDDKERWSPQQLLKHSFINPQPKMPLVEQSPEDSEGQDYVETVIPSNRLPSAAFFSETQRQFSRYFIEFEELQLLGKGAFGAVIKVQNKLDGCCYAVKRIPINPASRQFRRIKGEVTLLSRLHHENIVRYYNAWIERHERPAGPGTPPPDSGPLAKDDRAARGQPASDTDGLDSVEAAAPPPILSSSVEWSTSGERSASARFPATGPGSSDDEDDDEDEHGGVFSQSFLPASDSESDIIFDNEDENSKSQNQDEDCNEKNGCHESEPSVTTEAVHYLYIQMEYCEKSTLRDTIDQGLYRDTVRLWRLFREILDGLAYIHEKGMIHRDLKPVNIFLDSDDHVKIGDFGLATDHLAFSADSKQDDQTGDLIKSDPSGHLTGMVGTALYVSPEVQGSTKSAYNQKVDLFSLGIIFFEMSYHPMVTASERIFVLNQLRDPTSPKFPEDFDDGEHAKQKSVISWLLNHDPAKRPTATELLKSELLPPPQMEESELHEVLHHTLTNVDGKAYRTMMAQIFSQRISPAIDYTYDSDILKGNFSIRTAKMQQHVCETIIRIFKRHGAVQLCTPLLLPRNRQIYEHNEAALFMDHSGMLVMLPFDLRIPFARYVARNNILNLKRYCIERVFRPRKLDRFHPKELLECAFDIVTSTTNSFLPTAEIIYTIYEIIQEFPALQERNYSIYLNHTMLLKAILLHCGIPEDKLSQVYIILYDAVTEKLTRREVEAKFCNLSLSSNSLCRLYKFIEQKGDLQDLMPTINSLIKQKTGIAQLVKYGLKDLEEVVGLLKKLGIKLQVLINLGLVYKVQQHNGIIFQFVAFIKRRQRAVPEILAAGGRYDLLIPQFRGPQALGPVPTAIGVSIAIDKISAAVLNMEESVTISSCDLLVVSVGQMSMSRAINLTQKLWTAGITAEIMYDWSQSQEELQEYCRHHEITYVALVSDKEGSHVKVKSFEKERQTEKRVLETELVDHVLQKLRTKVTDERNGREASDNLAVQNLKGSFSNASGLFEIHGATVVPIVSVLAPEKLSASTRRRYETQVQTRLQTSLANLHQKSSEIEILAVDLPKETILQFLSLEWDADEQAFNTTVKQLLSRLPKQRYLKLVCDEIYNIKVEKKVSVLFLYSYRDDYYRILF

IC50 | SMILES
< 0.01 µM | Cc1cnc(Nc2cc(C)n(C)n2)nc1-c1c[nH]c2c(N3Cc4c(cccc4-c4ccc(C(N)=O)nc4)C3=O)cccc12 [Example 474, 5-(2-(3-(2-((1,5-dimethyl-1H-pyrazol-3-yl)amino)-5-methylpyrimidin-4-yl)-1H-indol-7-yl)-1-oxoisoindolin-4-yl)picolinamide]
< 0.01 µM | Cc1cnc(Nc2cc(C)n(C)n2)nc1-c1c[nH]c2c(N3Cc4c(cccc4-c4ccnc(N(C)C)c4)C3=O)cccc12 [Example 475, 2-(3-(2-((1,5-dimethyl-1H-pyrazol-3-yl)amino)-5-methylpyrimidin-4-yl)-1H-indol-7-yl)-4-(2-(dimethylamino)pyridin-4-yl)isoindolin-1-one]
< 0.01 µM | CNc1cc(-c2cccc3c2CN(c2cccc4c(-c5nc(Nc6cc(C)n(C)n6)ncc5C)c[nH]c24)C3=O)ccn1 [Example 476, 2-(3-(2-((1,5-dimethyl-1H-pyrazol-3-yl)amino)-5-methylpyrimidin-4-yl)-1H-indol-7-yl)-4-(2-(methylamino)pyridin-4-yl)isoindolin-1-one]
< 0.01 µM | Cc1cncc(-c2cccc3c2CN(c2cccc4c(-c5nc(Nc6cc(C)n(C)n6)ncc5C)c[nH]c24)C3=O)c1 [Example 477, 2-(3-(2-((1,5-dimethyl-1H-pyrazol-3-yl)amino)-5-methylpyrimidin-4-yl)-1H-indol-7-yl)-4-(5-methylpyridin-3-yl)isoindolin-1-one]
< 0.01 µM | Cc1cnc(Nc2cc(C)n(C)n2)nc1-c1c[nH]c2c(N3Cc4c(cccc4-c4cncc(F)c4)C3=O)cccc12 [Example 478, 2-(3-(2-((1,5-dimethyl-1H-pyrazol-3-yl)amino)-5-methylpyrimidin-4-yl)-1H-indol-7-yl)-4-(5-fluoropyridin-3-yl)isoindolin-1-one]
< 0.01 µM | Cc1cc(-c2cccc3c2CN(c2cccc4c(-c5nc(Nc6cc(C)n(C)n6)ncc5C)c[nH]c24)C3=O)cc(C)n1 [Example 479, 2-(3-(2-((1,5-dimethyl-1H-pyrazol-3-yl)amino)-5-methylpyrimidin-4-yl)-1H-indol-7-yl)-4-(2,6-dimethylpyridin-4-yl)isoindolin-1-one]
< 0.01 µM | Cc1cnc(Nc2cc(C)n(C)n2)nc1-c1c[nH]c2c(N3Cc4c(-c5ccncc5)ccc(F)c4C3=O)cccc12 [Example 480, 2-(3-(2-((1,5-dimethyl-1H-pyrazol-3-yl)amino)-5-methylpyrimidin-4-yl)-1H-indol-7-yl)-7-fluoro-4-(pyridin-4-yl)isoindolin-1-one]
< 0.01 µM | COc1cc(-c2ccc(F)c3c2CN(c2cccc4c(-c5nc(Nc6cc(C)n(C)n6)ncc5C)c[nH]c24)C3=O)ccn1 [Example 481, 2-(3-(2-((1,5-dimethyl-1H-pyrazol-3-yl)amino)-5-methylpyrimidin-4-yl)-1H-indol-7-yl)-7-fluoro-4-(2-methoxypyridin-4-yl)isoindolin-1-one]
< 0.01 µM | CNc1cc(-c2ccc(F)c3c2CN(c2cccc4c(-c5nc(Nc6cc(C)n(C)n6)ncc5C)c[nH]c24)C3=O)ccn1 [Example 482, 2-(3-(2-((1,5-dimethyl-1H-pyrazol-3-yl)amino)-5-methylpyrimidin-4-yl)-1H-indol-7-yl)-7-fluoro-4-(2-(methylamino)pyridin-4-yl)isoindolin-1-one]
< 0.01 µM | Cc1cnc(Nc2cc(C)n(C)n2)nc1-c1c[nH]c2c(N3Cc4c(-c5ccnc(N(C)C)c5)ccc(F)c4C3=O)cccc12 [Example 483, 2-(3-(2-((1,5-dimethyl-1H-pyrazol-3-yl)amino)-5-methylpyrimidin-4-yl)-1H-indol-7-yl)-4-(2-(dimethylamino)pyridin-4-yl)-7-fluoroisoindolin-1-one]
< 0.01 µM | Cc1cnc(Nc2cc(C)n(C)n2)nc1-c1c[nH]c2c(N3Cc4c(-c5cncc(F)c5)ccc(F)c4C3=O)cccc12 [Example 484, 2-(3-(2-((1,5-dimethyl-1H-pyrazol-3-yl)amino)-5-methylpyrimidin-4-yl)-1H-indol-7-yl)-7-fluoro-4-(5-fluoropyridin-3-yl)isoindolin-1-one]
< 0.01 µM | Cc1cnc(Nc2cc(C)n(C)n2)nc1-c1c[nH]c2c(N3Cc4c(-c5ccnc(F)c5)ccc(F)c4C3=O)cccc12 [Example 485, 2-(3-(2-((1,5-dimethyl-1H-pyrazol-3-yl)amino)-5-methylpyrimidin-4-yl)-1H-indol-7-yl)-7-fluoro-4-(2-fluoropyridin-4-yl)isoindolin-1-one]
< 0.01 µM | Cc1cncc(-c2ccc(F)c3c2CN(c2cccc4c(-c5nc(Nc6cc(C)n(C)n6)ncc5C)c[nH]c24)C3=O)c1 [Example 486, 2-(3-(2-((1,5-dimethyl-1H-pyrazol-3-yl)amino)-5-methylpyrimidin-4-yl)-1H-indol-7-yl)-7-fluoro-4-(5-methylpyridin-3-yl)isoindolin-1-one]
< 0.01 µM | Cc1cnccc1-c1ccc(F)c2c1CN(c1cccc3c(-c4nc(Nc5cc(C)n(C)n5)ncc4C)c[nH]c13)C2=O [Example 487, 2-(3-(2-((1,5-dimethyl-1H-pyrazol-3-yl)amino)-5-methylpyrimidin-4-yl)-1H-indol-7-yl)-7-fluoro-4-(3-methylpyridin-4-yl)isoindolin-1-one]
< 0.01 µM | Cc1cc(-c2ccc(F)c3c2CN(c2cccc4c(-c5nc(Nc6cc(C)n(C)n6)ncc5C)c[nH]c24)C3=O)cc(C)n1 [Example 488, 2-(3-(2-((1,5-dimethyl-1H-pyrazol-3-yl)amino)-5-methylpyrimidin-4-yl)-1H-indol-7-yl)-4-(2,6-dimethylpyridin-4-yl)-7-fluoroisoindolin-1-one]
< 0.01 µM | Cc1cnc(Nc2cc(C)n(C)n2)nc1-c1c[nH]c2c(N3Cc4c(-c5ccncc5)ccc([N+](=O)[O-])c4C3=O)cccc12 [Example 489, 2-(3-(2-((1,5-dimethyl-1H-pyrazol-3-yl)amino)-5-methylpyrimidin-4-yl)-1H-indol-7-yl)-7-nitro-4-(pyridin-4-yl)isoindolin-1-one]
0.01 to 0.1 µM | Cc1cnc(Nc2cc(C)n(C)n2)nc1-c1c[nH]c2c(N3Cc4c(-c5ccncc5)ccc(N(C)C)c4C3=O)cccc12 [Example 490, 2-(3-(2-((1,5-dimethyl-1H-pyrazol-3-yl)amino)-5-methylpyrimidin-4-yl)-1H-indol-7-yl)-7-(dimethylamino)-4-(pyridin-4-yl)isoindolin-1-one]
0.1 to 1 µM | CNc1ccc(-c2ccncc2)c2c1C(=O)N(c1cccc3c(-c4nc(Nc5cc(C)n(C)n5)ncc4C)c[nH]c13)C2 [Example 491, 2-(3-(2-((1,5-dimethyl-1H-pyrazol-3-yl)amino)-5-methylpyrimidin-4-yl)-1H-indol-7-yl)-7-(methylamino)-4-(pyridin-4-yl)isoindolin-1-one]
0.1 to 1 µM | Cc1cnc(Nc2cc(C)n(C)n2)nc1-c1c[nH]c2c(N3Cc4c(-c5ccccc5)ccc(I)c4C3=O)cccc12 [Example 492, 2-(3-(2-((1,5-dimethyl-1H-pyrazol-3-yl)amino)-5-methylpyrimidin-4-yl)-1H-indol-7-yl)-7-iodo-4-phenylisoindolin-1-one]
< 0.01 µM | Cc1cnc(Nc2cc(C)n(C)n2)nc1-c1c[nH]c2c(N3Cc4c(-c5ccccc5)ccnc4C3=O)cccc12 [Example 493, 6-(3-(2-((1,5-dimethyl-1H-pyrazol-3-yl)amino)-5-methylpyrimidin-4-yl)-1H-indol-7-yl)-4-phenyl-5,6-dihydro-7H-pyrrolo[3,4-b]pyridin-7-one]
< 0.01 µM | Cc1cnc(Nc2cc(C)n(C)n2)nc1-c1c[nH]c2c(N3Cc4c(-c5ccncc5)ccnc4C3=O)cccc12 [Example 494, 6-(3-(2-((1,5-dimethyl-1H-pyrazol-3-yl)amino)-5-methylpyrimidin-4-yl)-1H-indol-7-yl)-4-(pyridin-4-yl)-5,6-dihydro-7H-pyrrolo[3,4-b]pyridin-7-one]
< 0.01 µM | Cc1cnc(Nc2cc(C)n(C)n2)nc1-c1c[nH]c2c(N3Cc4c(-c5cccnc5)ccnc4C3=O)cccc12 [Example 495, 6-(3-(2-((1,5-dimethyl-1H-pyrazol-3-yl)amino)-5-methylpyrimidin-4-yl)-1H-indol-7-yl)-4-(pyridin-3-yl)-5,6-dihydro-7H-pyrrolo[3,4-b]pyridin-7-one]
< 0.01 µM | Cc1cnc(Nc2cc(C)n(C)n2)nc1-c1c[nH]c2c(N3Cc4c(C5=CCNCC5)ccnc4C3=O)cccc12 [Example 496, 6-(3-(2-((1,5-dimethyl-1H-pyrazol-3-yl)amino)-5-methylpyrimidin-4-yl)-1H-indol-7-yl)-4-(1,2,3,6-tetrahydropyridin-4-yl)-5,6-dihydro-7H-pyrrolo[3,4-b]pyridin-7-one]
< 0.01 µM | Cc1cnc(Nc2cc(C)n(C)n2)nc1-c1c[nH]c2c(N3Cc4cc(-c5ccncc5)cnc4C3=O)cccc12 [Example 497, 6-(3-(2-((1,5-dimethyl-1H-pyrazol-3-yl)amino)-5-methylpyrimidin-4-yl)-1H-indol-7-yl)-3-(pyridin-4-yl)-5,6-dihydro-7H-pyrrolo[3,4-b]pyridin-7-one]
< 0.01 µM | Cc1cnc(Nc2cc(C)n(C)n2)nc1-c1c[nH]c2c(N3Cc4cc(C5=CCNCC5)cnc4C3=O)cccc12 [Example 498, 6-(3-(2-((1,5-dimethyl-1H-pyrazol-3-yl)amino)-5-methylpyrimidin-4-yl)-1H-indol-7-yl)-3-(1,2,3,6-tetrahydropyridin-4-yl)-5,6-dihydro-7H-pyrrolo[3,4-b]pyridin-7-one]
< 0.01 µM | Cc1cnc(Nc2cc(C)n(C)n2)nc1-c1c[nH]c2c(N3Cc4c(cncc4C4=CCNCC4)C3=O)cccc12 [Example 499, 2-(3-(2-((1,5-dimethyl-1H-pyrazol-3-yl)amino)-5-methylpyrimidin-4-yl)-1H-indol-7-yl)-7-(1,2,3,6-tetrahydropyridin-4-yl)-1,2-dihydro-3H-pyrrolo[3,4-c]pyridin-3-one]
< 0.01 µM | Cc1cnc(Nc2cc(C)n(C)n2)nc1-c1c[nH]c2c(N3Cc4c(cncc4-c4ccncc4)C3=O)cccc12 [Example 500, 2-(3-(2-((1,5-dimethyl-1H-pyrazol-3-yl)amino)-5-methylpyrimidin-4-yl)-1H-indol-7-yl)-7-(pyridin-4-yl)-1,2-dihydro-3H-pyrrolo[3,4-c]pyridin-3-one]

— patent US20240025884A1 (Dong-A ST Co., Ltd., priority 2022, published 2024)
